Laboratory results from patent US20100184699A1, “Peptide Derived From Prostate-Related Protein As Cancer Vaccine Candidate For Prostate Cancer Patient Who Is Positive For Hla-A3 Super-Type Allele Molecule” (priority 2005, published 2010).
Several values for one entry are separate records, joined by “and”; a condition that tells them apart may be missing. Equal entries are not always repeated.

Assays:
[1] = tested on: peptide-specific IgG in plasma of prostate cancer patients and healthy donors; assay: Detection of peptide-specific IgG in plasma by ELISA; format: binding, human; details: for IgG reactive to peptide in plasma: 1:100-diluted plasma; for frequency of detection of peptide-reactive IgG: plasma of prostate cancer patients, compared within PSA, PAP or PSMA peptides
[2] = tested on: C1R-A11, -A31 or -A33 cells pulsed with corresponding peptide; assay: Induction of peptide-specific CTLs from PBMCs (IFN-γ ELISA); format: cell-based, human
[3] = Prostate cancer patient 10, A11
[4] = Prostate cancer patient 13, A11
[5] = Prostate cancer patient 14, A33
[6] = Prostate cancer patient 20, A33
[7] = Prostate cancer patient 16, A33
[8] = Prostate cancer patient 19, A33

Row | Sequence | IgG reactive to peptide in plasma, Total (positive/tested) ([1]; Healthy donors) | IgG reactive to peptide in plasma ([1]; Prostate cancer patient 9, A11) | IgG reactive to peptide in plasma [1, 3] | IgG reactive to peptide in plasma [1, 4] | IgG reactive to peptide in plasma [1, 5] | IgG reactive to peptide in plasma, Total (positive/tested) ([1]; Prostate cancer patients) | frequency of detection of peptide-reactive IgG [1] | Total (positive / tested) [2] | IgG reactive to peptide in plasma [1, 6] | IgG reactive to peptide in plasma ([1]; Prostate cancer patient 4, A31) | IgG reactive to peptide in plasma [1, 7] | IgG reactive to peptide in plasma ([1]; Healthy donor 3, A31) | IgG reactive to peptide in plasma ([1]; Healthy donor 9, A11) | IgG reactive to peptide in plasma ([1]; Prostate cancer patient 3, A31) | IgG reactive to peptide in plasma ([1]; Prostate cancer patient 8, A11) | IgG reactive to peptide in plasma [1, 8] | also measured
1 | TLKSEEFQKR [PAP 171-180] | 0/9 | + (IgG reactive to a corresponding peptide was judged to be positive when a difference of the optical density (OD) in a 1:100-diluted plasma was more than 100) | + (IgG reactive to a corresponding peptide was judged to be positive when a difference of the optical density (OD) in a 1:100-diluted plasma was more than 100) | + (IgG reactive to a corresponding peptide was judged to be positive when a difference of the optical density (OD) in a 1:100-diluted plasma was more than 100) | + (IgG reactive to a corresponding peptide was judged to be positive when a difference of the optical density (OD) in a 1:100-diluted plasma was more than 100) | 4/20 | more frequently | 0/13 and 8/9 | – | – | – | – | – | – | – | – | –
2 | KIVIARYGK (PSMA 199-207) [PSMA-derived peptide] | 0/9 | – | – | – | – | 1/20 | less frequently | 0/13 and 4/9 | + (IgG reactive to a corresponding peptide was judged to be positive when a difference of the optical density (OD) in a 1:100-diluted plasma was more than 100) | – | – | – | – | – | – | – | –
3 | VLTAAHCIR [PSA 60-68] | 1/9 | – | + (IgG reactive to a corresponding peptide was judged to be positive when a difference of the optical density (OD) in a 1:100-diluted plasma was more than 100) | – | – | 3/20 | more frequently | 1/13 and 3/9 | – | + (IgG reactive to a corresponding peptide was judged to be positive when a difference of the optical density (OD) in a 1:100-diluted plasma was more than 100) | + (IgG reactive to a corresponding peptide was judged to be positive when a difference of the optical density (OD) in a 1:100-diluted plasma was more than 100) | – | – | – | – | – | IgG reactive to peptide in plasma ([1]; Healthy donor 4, A31): + (IgG reactive to a corresponding peptide was judged to be positive when a difference of the optical density (OD) in a 1:100-diluted plasma was more than 100)
4 | GTLKKEGWR (PSMA 403-411) [PSMA-derived peptide] | 2/9 | + (IgG reactive to a corresponding peptide was judged to be positive when a difference of the optical density (OD) in a 1:100-diluted plasma was more than 100) | + (IgG reactive to a corresponding peptide was judged to be positive when a difference of the optical density (OD) in a 1:100-diluted plasma was more than 100) | + (IgG reactive to a corresponding peptide was judged to be positive when a difference of the optical density (OD) in a 1:100-diluted plasma was more than 100) | + (IgG reactive to a corresponding peptide was judged to be positive when a difference of the optical density (OD) in a 1:100-diluted plasma was more than 100) | 19/20 | more frequently | 1/13 and 3/9 | + (IgG reactive to a corresponding peptide was judged to be positive when a difference of the optical density (OD) in a 1:100-diluted plasma was more than 100) | + (IgG reactive to a corresponding peptide was judged to be positive when a difference of the optical density (OD) in a 1:100-diluted plasma was more than 100) | + (IgG reactive to a corresponding peptide was judged to be positive when a difference of the optical density (OD) in a 1:100-diluted plasma was more than 100) | + (IgG reactive to a corresponding peptide was judged to be positive when a difference of the optical density (OD) in a 1:100-diluted plasma was more than 100) | + (IgG reactive to a corresponding peptide was judged to be positive when a difference of the optical density (OD) in a 1:100-diluted plasma was more than 100) | + (IgG reactive to a corresponding peptide was judged to be positive when a difference of the optical density (OD) in a 1:100-diluted plasma was more than 100) | + (IgG reactive to a corresponding peptide was judged to be positive when a difference of the optical density (OD) in a 1:100-diluted plasma was more than 100) | + (IgG reactive to a corresponding peptide was judged to be positive when a difference of the optical density (OD) in a 1:100-diluted plasma was more than 100) | IgG reactive to peptide in plasma ([1]; Prostate cancer patient 1, A31): + (IgG reactive to a corresponding peptide was judged to be positive when a difference of the optical density (OD) in a 1:100-diluted plasma was more than 100); IgG reactive to peptide in plasma ([1]; Prostate cancer patient 2, A31): + (IgG reactive to a corresponding peptide was judged to be positive when a difference of the optical density (OD) in a 1:100-diluted plasma was more than 100); IgG reactive to peptide in plasma ([1]; Prostate cancer patient 5, A31): + (IgG reactive to a corresponding peptide was judged to be positive when a difference of the optical density (OD) in a 1:100-diluted plasma was more than 100); IgG reactive to peptide in plasma ([1]; Prostate cancer patient 6, A31): + (IgG reactive to a corresponding peptide was judged to be positive when a difference of the optical density (OD) in a 1:100-diluted plasma was more than 100); IgG reactive to peptide in plasma ([1]; Prostate cancer patient 7, A11): + (IgG reactive to a corresponding peptide was judged to be positive when a difference of the optical density (OD) in a 1:100-diluted plasma was more than 100); IgG reactive to peptide in plasma ([1]; Prostate cancer patient 12, A11): + (IgG reactive to a corresponding peptide was judged to be positive when a difference of the optical density (OD) in a 1:100-diluted plasma was more than 100); IgG reactive to peptide in plasma ([1]; Prostate cancer patient 15, A33): + (IgG reactive to a corresponding peptide was judged to be positive when a difference of the optical density (OD) in a 1:100-diluted plasma was more than 100); IgG reactive to peptide in plasma ([1]; Prostate cancer patient 17, A33): + (IgG reactive to a corresponding peptide was judged to be positive when a difference of the optical density (OD) in a 1:100-diluted plasma was more than 100); IgG reactive to peptide in plasma ([1]; Prostate cancer patient 18, A33): + (IgG reactive to a corresponding peptide was judged to be positive when a difference of the optical density (OD) in a 1:100-diluted plasma was more than 100)
5 | SLLKNRFLR (PSA 104-112) [PSA-derived peptide] | 0/9 | + (IgG reactive to a corresponding peptide was judged to be positive when a difference of the optical density (OD) in a 1:100-diluted plasma was more than 100) | + (IgG reactive to a corresponding peptide was judged to be positive when a difference of the optical density (OD) in a 1:100-diluted plasma was more than 100) | – | – | 5/20 | more frequently | 3/13 and 1/9 | – | – | + (IgG reactive to a corresponding peptide was judged to be positive when a difference of the optical density (OD) in a 1:100-diluted plasma was more than 100) | – | – | + (IgG reactive to a corresponding peptide was judged to be positive when a difference of the optical density (OD) in a 1:100-diluted plasma was more than 100) | + (IgG reactive to a corresponding peptide was judged to be positive when a difference of the optical density (OD) in a 1:100-diluted plasma was more than 100) | + (IgG reactive to a corresponding peptide was judged to be positive when a difference of the optical density (OD) in a 1:100-diluted plasma was more than 100) | –
6 | TLVFRHGDR [PAP 39-47] | 2/9 | + (IgG reactive to a corresponding peptide was judged to be positive when a difference of the optical density (OD) in a 1:100-diluted plasma was more than 100) | + (IgG reactive to a corresponding peptide was judged to be positive when a difference of the optical density (OD) in a 1:100-diluted plasma was more than 100) | – | + (IgG reactive to a corresponding peptide was judged to be positive when a difference of the optical density (OD) in a 1:100-diluted plasma was more than 100) | 5/20 | more frequently | 3/13 and 7/9 | + (IgG reactive to a corresponding peptide was judged to be positive when a difference of the optical density (OD) in a 1:100-diluted plasma was more than 100) | + (IgG reactive to a corresponding peptide was judged to be positive when a difference of the optical density (OD) in a 1:100-diluted plasma was more than 100) | – | + (IgG reactive to a corresponding peptide was judged to be positive when a difference of the optical density (OD) in a 1:100-diluted plasma was more than 100) | + (IgG reactive to a corresponding peptide was judged to be positive when a difference of the optical density (OD) in a 1:100-diluted plasma was more than 100) | – | – | – | –
